Reference: patent publication US3960877A, “N-monosubstituted-2,3-pyridinedicarboxamides, and related compounds” (priority 1974, dated 1976)

Key:
Format in all cases: in vivo
Alfalfa [1] = experiment: Preemergence herbicidal activity, % control of plant growth; details: Medicago sativa, pre-emergence, 504 h, 16 lb/acre, about 3 weeks
Outline: (§1)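 Visual % control score, averaged, taken ~3 weeks post-spray against untreated areas. Test compound (~2 wt% in acetone/alcohol) was sprayed at 16 lb/acre on soil right after sowing, pre-emergence.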

Barnyard Grass [2] = experiment: as above; details: Echinochloa crus-galli, pre-emergence, 504 h; barnyard grass; 16 lb/acre; about 3 weeks
Outline: as §1

Cheatgrass [3] = experiment: as above; details: Bromus tectorum, pre-emergence, 504 h, 16 lb/acre, about 3 weeks
Outline: as §1

Chickweed [4] = experiment: as above; details: pre-emergence, 504 h, 16 lb/acre, about 3 weeks
Outline: as §1

Corn [5] = experiment: as above; details: Zea mays, pre-emergence, 504 h, 16 lb/acre, about 3 weeks
Outline: as §1

Crabgrass [6] = experiment: as above; details: Digitaria sanguinalis, pre-emergence, 504 h, 16 lb/acre, about 3 weeks
Outline: as §1

Cucumber [7] = experiment: as above; details: Cucumis sativus, pre-emergence, 504 h, 16 lb/acre, about 3 weeks
Outline: as §1

Curled Dock [8] = experiment: as above; details: pre-emergence, 504 h, 16 lb/acre, about 3 weeks
Outline: as §1

Foxtail [9] = experiment: as above; details: Setaria, pre-emergence, 504 h, 16 lb/acre, about 3 weeks
Outline: as §1

Johnsongrass [10] = experiment: as above; details: Sorghum halepense, pre-emergence, 504 h, 16 lb/acre, about 3 weeks
Outline: as §1

Lambsquarters [11] = experiment: as above; details: Chenopodium album, pre-emergence, 504 h, 16 lb/acre, about 3 weeks
Outline: as §1

Nutgrass [12] = experiment: as above; details: pre-emergence, 504 h, 16 lb/acre, about 3 weeks
Outline: as §1

Pigweed [13] = experiment: as above; details: Amaranthus retroflexus, pre-emergence, 504 h, 16 lb/acre, about 3 weeks
Outline: as §1

Snapbeans [14] = experiment: as above; details: pre-emergence, 504 h, 16 lb/acre, about 3 weeks
Outline: as §1

Velvetleaf [15] = experiment: as above; details: Abutilon theophrasti, pre-emergence, 504 h, 16 lb/acre, about 3 weeks
Outline: as §1

Wild Oats [16] = experiment: as above; details: Avena fatua, pre-emergence, 504 h, 16 lb/acre, about 3 weeks
Outline: as §1

Yellow Rocket [17] = experiment: as above; details: pre-emergence, 504 h, 16 lb/acre, about 3 weeks
Outline: as §1

Alfalfa [18] = experiment: Postemergence herbicidal activity, % control of plant growth; details: Medicago sativa, post-emergence, 264 h, 8 lb/acre, about 11 days
Outline: (§2)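 Percent growth control was judged by eye about 11 days after spraying. Plants had been treated postemergence, roughly 2 weeks after seeding, at 8 lb/acre using an approximately 2 percent by weight solution in acetone and/or alcohol.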

Barnyard Grass [19] = experiment: as above; details: Echinochloa crus-galli, post-emergence, 264 h, 8 lb/acre, about 11 days
Outline: as §2

Cheatgrass [20] = experiment: as above; details: Bromus tectorum, post-emergence, 264 h, 8 lb/acre, about 11 days
Outline: as §2

Chickweed [21] = experiment: as above; details: post-emergence, 264 h, 8 lb/acre, about 11 days
Outline: as §2

Corn [22] = experiment: as above; details: Zea mays, post-emergence, 264 h, 8 lb/acre, about 11 days
Outline: as §2

Crabgrass [23] = experiment: as above; details: Digitaria sanguinalis, post-emergence, 264 h, 8 lb/acre, about 11 days
Outline: as §2

Cucumber [24] = experiment: as above; details: Cucumis sativus, post-emergence, 264 h, 8 lb/acre, about 11 days
Outline: as §2

Curled Dock [25] = experiment: as above; details: post-emergence, 264 h, 8 lb/acre, about 11 days
Outline: as §2

Foxtail [26] = experiment: as above; details: Setaria, post-emergence, 264 h, 8 lb/acre, about 11 days
Outline: as §2

Johnsongrass [27] = experiment: as above; details: Sorghum halepense, post-emergence, 264 h, 8 lb/acre, about 11 days
Outline: as §2

Lambsquarters [28] = experiment: as above; details: Chenopodium album, post-emergence, 264 h, 8 lb/acre, about 11 days
Outline: as §2

Nutgrass [29] = experiment: as above; details: post-emergence, 264 h, 8 lb/acre, about 11 days
Outline: as §2

Pigweed [30] = experiment: as above; details: Amaranthus retroflexus, post-emergence, 264 h, 8 lb/acre, about 11 days
Outline: as §2

Snapbeans [31] = experiment: as above; details: post-emergence, 264 h, 8 lb/acre, about 11 days
Outline: as §2

Velvetleaf [32] = experiment: as above; details: Abutilon theophrasti, post-emergence, 264 h, 8 lb/acre, about 11 days
Outline: as §2

Wild Oats [33] = experiment: as above; details: Avena fatua, post-emergence, 264 h, 8 lb/acre, about 11 days
Outline: as §2

Yellow Rocket [34] = experiment: as above; details: post-emergence, 264 h, 8 lb/acre, about 11 days
Outline: as §2

Structure (SMILES)	pest or weed control at 17933.6 g/ha (Alfalfa [1])	pest or weed control at 17933.6 g/ha (Barnyard Grass [2])	pest or weed control at 17933.6 g/ha (Cheatgrass [3])	pest or weed control at 17933.6 g/ha (Chickweed [4])	plant injury at 17933.6 g/ha (Corn [5])	pest or weed control at 17933.6 g/ha (Crabgrass [6])	pest or weed control at 17933.6 g/ha (Cucumber [7])	pest or weed control at 17933.6 g/ha (Curled Dock [8])	pest or weed control at 17933.6 g/ha (Foxtail [9])	pest or weed control at 17933.6 g/ha (Johnsongrass [10])	pest or weed control at 17933.6 g/ha (Lambsquarters [11])	pest or weed control at 17933.6 g/ha (Nutgrass [12])	pest or weed control at 17933.6 g/ha (Pigweed [13])	pest or weed control at 17933.6 g/ha (Snapbeans [14])	pest or weed control at 17933.6 g/ha (Velvetleaf [15])	pest or weed control at 17933.6 g/ha (Wild Oats [16])	pest or weed control at 17933.6 g/ha (Yellow Rocket [17])	pest or weed control at 8966.8 g/ha (Alfalfa [18])	pest or weed control at 8966.8 g/ha (Barnyard Grass [19])	pest or weed control at 8966.8 g/ha (Cheatgrass [20])	other results
CCCn1c(=O)[nH]c2cccnc2c1=O [3-propyl-pyrido[3,2-d]pyrimidine-2,4(1H,3H)-dione]	100%	100%	100%	100%	100%	100%	100%	100%	100%	100%	100%	20%	100%	100%	100%	100%	100%	100%	100%	100%	pest or weed control at 8966.8 g/ha (Chickweed [21]): 100%; plant injury at 8966.8 g/ha (Corn [22]): 60%; pest or weed control at 8966.8 g/ha (Crabgrass [23]): 100%; pest or weed control at 8966.8 g/ha (Cucumber [24]): 100%; pest or weed control at 8966.8 g/ha (Curled Dock [25]): 100%; pest or weed control at 8966.8 g/ha (Foxtail [26]): 100%; pest or weed control at 8966.8 g/ha (Johnsongrass [27]): 100%; pest or weed control at 8966.8 g/ha (Lambsquarters [28]): 100%; pest or weed control at 8966.8 g/ha (Nutgrass [29]): 70%; pest or weed control at 8966.8 g/ha (Pigweed [30]): 100%; pest or weed control at 8966.8 g/ha (Snapbeans [31]): 100%; pest or weed control at 8966.8 g/ha (Velvetleaf [32]): 100%; pest or weed control at 8966.8 g/ha (Wild Oats [33]): 90%; pest or weed control at 8966.8 g/ha (Yellow Rocket [34]): 100%
CCCCn1c(=O)[nH]c2nccnc2c1=O [Lumazine, 3-butyl]	0%	0%	0%	90%	0%	0%	0%	0%	0%	0%	0%	0%	0%	20%	0%	0%	0%	0%	0%	0%	pest or weed control at 8966.8 g/ha (Chickweed [21]): 0%; plant injury at 8966.8 g/ha (Corn [22]): 0%; pest or weed control at 8966.8 g/ha (Crabgrass [23]): 0%; pest or weed control at 8966.8 g/ha (Cucumber [24]): 0%; pest or weed control at 8966.8 g/ha (Curled Dock [25]): 0%; pest or weed control at 8966.8 g/ha (Foxtail [26]): 0%; pest or weed control at 8966.8 g/ha (Johnsongrass [27]): 0%; pest or weed control at 8966.8 g/ha (Lambsquarters [28]): 70%; pest or weed control at 8966.8 g/ha (Nutgrass [29]): 0%; pest or weed control at 8966.8 g/ha (Pigweed [30]): 0%; pest or weed control at 8966.8 g/ha (Snapbeans [31]): 0%; pest or weed control at 8966.8 g/ha (Velvetleaf [32]): 0%; pest or weed control at 8966.8 g/ha (Wild Oats [33]): 0%; pest or weed control at 8966.8 g/ha (Yellow Rocket [34]): 70%
O=c1[nH]c2nccnc2c(=O)n1C1CCCCC1 [Lumazine, 3-cyclohexyl]	100%	20%	10%	100%	40%	80%	100%	90%	20%	30%	100%	100%	100%	100%	100%	20%	100%	100%	10%	50%	pest or weed control at 8966.8 g/ha (Chickweed [21]): 90%; plant injury at 8966.8 g/ha (Corn [22]): 10%; pest or weed control at 8966.8 g/ha (Crabgrass [23]): 20%; pest or weed control at 8966.8 g/ha (Cucumber [24]): 100%; pest or weed control at 8966.8 g/ha (Curled Dock [25]): 100%; pest or weed control at 8966.8 g/ha (Foxtail [26]): 10%; pest or weed control at 8966.8 g/ha (Johnsongrass [27]): 20%; pest or weed control at 8966.8 g/ha (Lambsquarters [28]): 100%; pest or weed control at 8966.8 g/ha (Nutgrass [29]): 100%; pest or weed control at 8966.8 g/ha (Pigweed [30]): 90%; pest or weed control at 8966.8 g/ha (Snapbeans [31]): 100%; pest or weed control at 8966.8 g/ha (Velvetleaf [32]): 100%; pest or weed control at 8966.8 g/ha (Wild Oats [33]): 10%; pest or weed control at 8966.8 g/ha (Yellow Rocket [34]): 100%
CCC(C)n1c(=O)[nH]c2nccnc2c1=O (centres unmarked) [Lumazine, 3-sec-butyl]	100%	40%	90%	40%	10%	100%	10%	70%	30%	40%	100%	40%	100%	90%	100%	30%	100%	50%	0%	0%	pest or weed control at 8966.8 g/ha (Chickweed [21]): 0%; plant injury at 8966.8 g/ha (Corn [22]): 0%; pest or weed control at 8966.8 g/ha (Crabgrass [23]): 0%; pest or weed control at 8966.8 g/ha (Cucumber [24]): 60%; pest or weed control at 8966.8 g/ha (Curled Dock [25]): 50%; pest or weed control at 8966.8 g/ha (Foxtail [26]): 0%; pest or weed control at 8966.8 g/ha (Johnsongrass [27]): 0%; pest or weed control at 8966.8 g/ha (Lambsquarters [28]): 100%; pest or weed control at 8966.8 g/ha (Nutgrass [29]): 0%; pest or weed control at 8966.8 g/ha (Pigweed [30]): 20%; pest or weed control at 8966.8 g/ha (Snapbeans [31]): 20%; pest or weed control at 8966.8 g/ha (Velvetleaf [32]): 90%; pest or weed control at 8966.8 g/ha (Wild Oats [33]): 0%; pest or weed control at 8966.8 g/ha (Yellow Rocket [34]): 100%
O=c1[nH]c(=O)c2ncccc2[nH]1 [pyrido[3,2-d]pyrimidine-2,4(1H,3H)-dione, reference compound]	0%	0%	0%	0%	0%	0%	0%	0%	0%	0%	0%	0%	0%	0%	0%	0%	0%	0%	0%	0%	pest or weed control at 8966.8 g/ha (Chickweed [21]): 0%; plant injury at 8966.8 g/ha (Corn [22]): 0%; pest or weed control at 8966.8 g/ha (Crabgrass [23]): 0%; pest or weed control at 8966.8 g/ha (Cucumber [24]): 0%; pest or weed control at 8966.8 g/ha (Curled Dock [25]): 0%; pest or weed control at 8966.8 g/ha (Foxtail [26]): 0%; pest or weed control at 8966.8 g/ha (Johnsongrass [27]): 0%; pest or weed control at 8966.8 g/ha (Lambsquarters [28]): 0%; pest or weed control at 8966.8 g/ha (Nutgrass [29]): 0%; pest or weed control at 8966.8 g/ha (Pigweed [30]): 0%; pest or weed control at 8966.8 g/ha (Snapbeans [31]): 0%; pest or weed control at 8966.8 g/ha (Velvetleaf [32]): 0%; pest or weed control at 8966.8 g/ha (Wild Oats [33]): 0%; pest or weed control at 8966.8 g/ha (Yellow Rocket [34]): 0%
